# Strand notation (5' to 3'): a small letter for the sugar, then the base; units joined by * are phosphorothioate-linked, units joined directly phosphodiester-linked; [ ] holds rarer units or linkages, { } end groups; capitals alone tell only the bases. d = 2'-deoxy (DNA)
# Key:
# [1] = tested on: PDCs and allogeneic naive CD4+ T cells; assay: In vitro priming of naive CD4+ T cells by allogeneic PDCs: CD4+CD25+Foxp3+ Treg generation (flow cytometry); assay type: cell-based, human
# Text: PDC, B, and T cell isolation. Human PBMC were isolated under IRE-approved protocols from apheresis products of healthy blood donors (Memorial Blood Centers of Minnesota, Minneapolis, Minn.) by Ficoll-Paque density gradient centrifugation. Plasmascytoid dendritic cells (PDCs) were isolated from PBMC using BDCA-4 cell isolation kits and the MACS system, followed by staining and sorting to collect purified Lin-CD11c-CD123+ PDCs, as reported previously (Moseman et al., J Immunol 2004; 173:4433-4442). […] cells were isolated from PBMC using CD4 T cell isolation kits followed by positive selection with CD45RA microbeads. […] B cells were isolated from PBMC with CD19 microbeads and the MACS system to greater than 98% purity of CD19+ B cells. All cell isolations kits and microbeads were from Miltenyi Biotec (Bergisch Gladbach, Germany). Reagents. Phosphorothioate-modified type-A CpG ODN 2216: […] NO:2), type-B CpG ODN 2006: […] NO:3) (sequences are shown 5'-3'; small letters represent phosphorothioate linkage; capital letters represent phosphodiester linkage 3' of the base; bold represents CpGdinucleotides) were from Integrated DNA Technologies (Coralville, Iowa), diluted in PBS, and used at a final concentration of 1 microgran per milliliter (μg/ml). […] Kynurenine (L-KYN, Sigma-Aldrich) was used at a final concentration of 50 μM. In vitro priming of naive CD4+ T cells. CD4+CD45RA+ naive T cells were primed with allogeneic PDCs or irradiated B cells (30 Gy) at a 10:1 ratio (e.g., 2×10^6 naive CD4+ T cells plus 2×105 PDCs per well in 24-well plates) with ODN 2216 or ODN 2006 present in RPMI 1640 medium supplemented with 10% human AB serum. 1 MT and/or KYN were added into CpG ODN-PDC or CpG ODN-B cell mediated naive CD4+ T cell priming cultures as indicated. […] After 7 days, primed T cells in cultures were harvested, assessed for their surface phenotype, intracellular Foxp3 expression, and their function in MLR assays. […] Mean fluorescence intensity (MFI) and positive cell percentages of stained cells were determined by flow cytometry.
# [2] = tested on: primed CD4+ T cells / naive CD4+ T cells; assay: MLR assays of function of CpG-PDC or CpG-B cell primed CD4+ T cells; assay type: cell-based, human; details: KYN added to priming MLRs containing 1MT
# Method: In vitro priming of naive CD4+ T cells. CD4+CD45RA+ naive T cells were primed with allogeneic PDCs or irradiated B cells (30 Gy) at a 10:1 ratio (e.g., 2×10^6 naive CD4+ T cells plus 2×105 PDCs per well in 24-well plates) with ODN 2216 or ODN 2006 present in RPMI 1640 medium supplemented with 10% human AB serum. 1 MT and/or KYN were added into CpG ODN-PDC or CpG ODN-B cell mediated naive CD4+ T cell priming cultures as indicated. In some experiments, blocking Abs against CD80, CD86, HLA-DR or the control IgG Ab (R&D Systems, Minneapolis, Minn.) were added to CpG-PDC-mediated naive CD4+ T cell priming cultures at a final Ab concentration ranging from 0.1 to 10 μg/ml. After 7 days, primed T cells in cultures were harvested, assessed for their surface phenotype, intracellular Foxp3 expression, and their function in MLR assays.
# MLR assays. […] In all T cell proliferation assays, plates were incubated at 37° C. for 5 days and pulsed with 1 μCi of 3H-thymidine per well for the last 18 hours before harvesting. All determinations were carried out in triplicate and 3H-thymidine incorporation was determined.
# OT-I and A1 T cells = assay: Bystander-suppression assays (TDLN IDO+ DCs, OT-I, Tregs, A1 bystander cells); assay type: cell-based, mouse
# Method: Isolation of tumor-draining lymph node DCs.
# Bystander-suppression assays. All experiments were repeated 3-5 times unless otherwise indicated. OT-I cells were sorted as CD8^+ spleen cells, gated on the CD11c^NEGB220^NEG fraction to exclude DCs. Sorted DCs from TDLN were mixed with 1×10^5 responder cells at a 1:40 ratio in V-bottom culture wells (Nunc). […] Sorted CD4^+ A1 cells (1×10^5) and CD11c^+ DCs (1:40 ratio) from normal CBA spleen were added as bystander cells. […] For transwell assays, 96-Multiwell insert plates (1 uM pore size, BD Falcon) were used and the number of cells in all groups was doubled.
# Feeder layer. Plasmacytoid DCs and Tregs have been reported to require survival factors to maintain viability and function in vitro.
# Readouts for T cell proliferation. […] After 72 hours, assays were stained for CD4 vs CD8 and CFSE fluorescence analyzed gated on CD4^+ (A1) and CD8^+ (OT-I) populations.
# Anti-CD3 proliferation and preactivation assays. […] For pre-activation studies, 2×10^4 Tregs were cultured with 1×10^5T-depleted spleen cells plus 0.1 ug/ml αCD3 antibody and 200 U/ml IL-2 (R&D Systems) for 48 hours.
# Lewis Lung carcinoma = Lewis Lung carcinoma model; cited from earlier work
# [3] = tested on: P815 transfected with IDO; details: concomitant administration; cited from earlier work
# auto-reactive T cells = details: cited from earlier work
# [4] = tested on: experimental autoimmune encephalomyelitis; details: mouse model; cited from earlier work
# PDCs = assay: Surface expression of CD80, CD86, HLA-DR on PDCs (flow cytometry); assay type: cell-based, human; details: CpG ODN stimulation 48 hours
# Text: PDC, B, and T cell isolation. Human PBMC were isolated under IRE-approved protocols from apheresis products of healthy blood donors (Memorial Blood Centers of Minnesota, Minneapolis, Minn.) by Ficoll-Paque density gradient centrifugation. Plasmascytoid dendritic cells (PDCs) were isolated from PBMC using BDCA-4 cell isolation kits and the MACS system, followed by staining and sorting to collect purified Lin-CD11c-CD123+ PDCs, as reported previously (Moseman et al., J Immunol 2004; 173:4433-4442). CD4+CD45RA+ naïve T cells were isolated from PBMC using CD4 T cell isolation kits followed by positive selection with CD45RA microbeads. The purity of naïve CD4+ T cells was greater than 95% for CD4+CD45RA+ expression and less than 0.5% for CD25+ expression. B cells were isolated from PBMC with CD19 microbeads and the MACS system to greater than 98% purity of CD19+ B cells. All cell isolations kits and microbeads were from Miltenyi Biotec (Bergisch Gladbach, Germany).
# Flow Cytometry. Fluorescent antibodies (Abs) against human CD3, CD4, CD11c, CD19, CD25, CD40, CD45, CD45RA, CD45RO, CD80, CD86, CD123, HLA-DR, lineage (Lin) markers, and isotype control Abs were from BD Biosciences (San Diego, Calif.). […] Mean fluorescence intensity (MFI) and positive cell percentages of stained cells were determined by flow cytometry.
# IDO protein in PDCs = assay: Western blot for IDO protein in cultured PDCs; assay type: cell-based, human; details: 48 hours culture with CpG ODN
# Method: Western blots. Protein lysates were prepared from 2×10^5 fresh or cultured PDCs or B cells. Western blot was performed with antibody specific for IDO protein
# BM3 T cells [5] = assay: Ex vivo T cell suppression assays with sorted Tregs from treated mice; assay type: in vivo, mouse
# Method: (§1) CpG Oligonucleotides. CpG-ODNs (CpG no. 1826, […]; (SEQ ID NO:4) and sequence matched non-CpG-B no. 2138, […] (SEQ ID NO:5)) with fully phosphorothioate backbones were purchased from Coley Pharmaceuticals. Mice were injected with relatively high doses of ODNs (50 μg/mouse, i/v) as described (Mellor et al. J Immunol 2005; 175:5601-5605).
# 1-methyl-[D]-tryptophan (1 mT). 1 mT (catalog number 45, 248-3, Sigma) was prepared as a 20 mM stock solution in 0.1 N NaOH, adjusted to pH 7.4, and stored at −20° C. protected from light. For in vitro use, 1 mT was added to MLRs to a final concentration of 100 μM. For in vivo treatment, slow-release polymer pellets (*5 mg/day) containing 1 mT or vehicle alone were inserted under the dorsal skin as described (Munn et al. Science 1998; 281:1191-1193) 24 hours before CpG treatment.
# Preparative flow cytometry to sort CD4+ T cells subsets. CD4+ T cell subsets were purified using a Mo-Flo cytometer as described (Mellor et al. J Immunol 2005; 175:5601-5605; Munn et al. Immunity 2005; 22:1-10).
# Ex vivo T cell suppression assays. Suppression assays were performed by adding sorted CD4+ cells to T cell proliferation assays (72 hour thymidine incorporation assays) containing responder H-2K^b-specific splenocytes from BM3 TCR transgenic mice (nylon-wool enriched) and CD11c+ splenocytes (AutoMacs enriched) from CBK (H-2K^b transgenic CBA) mice prepared as described (Mellor et al. J Immunol 2005; 175:5601-5605).
# BM3 T cells [6] = assay: Co-adoptive transfer of Tregs and BM3 T cells into CBK recipients; assay type: in vivo, mouse; details: 96 hours
# Method: Co-Adoptive Transfer. Purified (Mo-Flo sorted) CD4+CD25+ Tregs were prepared from spleens of CBK donor mice treated 24 hours previously with either 50 μg CpG or non-CpG. Tregs (1×10^6/recipient) were mixed with nylon-wool enriched BM3 responder T cells (5×10^6/recipient) and co-injected into CBK recipients (2-3 mice/group). Positive controls were CBK mice receiving BM3 T cells without Tregs; negative controls were CBA mice (lacking target antigen) receiving BM3 T cells. After 96 hours, mice were sacrificed and spleen cells stained with antibodies against CD8 (PerCP), CD25 (APC), H2K^b (PE) and biotinylated Ti98 (BM3 anti-clonotypic antibody, visualized with streptavidin APC (Tarazona et al. (1996) International Immunology 8:351-358). Except for Ti98, all antibodies were from Pharmingen (San Diego, Calif.).
# splenic Tregs = assay: Flow cytometry of CHOP and FoxP3 in splenic Tregs of treated mice; assay type: in vivo, mouse; details: wild-type mice
# Method: as §1
# Analytical flow cytometry. Intracellular CHOP staining was performed as described (Munn et al. (2005) Immunity 22:1-10), using antibody sc-7351 (Santa Cruz Biotechnology, Santa Cruz, Calif.).
molecule,measurement,setting,value
"Nc1ccccc1C(=O)CC(N)C(=O)O (stereo not shown) [KYN, Kynurenine]",CD4+CD25+Foxp3+ Treg generation in priming MLRs containing 1MT,"[1]; KYN 50 μM added with 1MT 250 μM, ODN 2216-PDC, day 7",restored CD4+CD25+Foxp3+ Treg generation
same,functional suppressor activity of PDC-primed T cells in MLR,[2],restored the generation of functional suppressor activity
same,hyporesponsiveness of primed T cells to alloantigen stimulation in MLR,[2],restored
same,bystander suppression with excess kynurenine when IDO blocked with 1MT,OT-I and A1 T cells; 1MT+25 uM kynurenine,did not recapitulate suppression
"Cn1cc(C[C@H](N)C(=O)O)c2ccccc21 [Inhibitor 1-MT, 1-methyl-tryptophan]",tumor outgrowth,Lewis Lung carcinoma,significantly delayed tumor outgrowth
same,IDO-mediated prevention of P815 rejection by pre-immunized hosts,[3],substantially reversed
Nc1c(O)cccc1C(=O)O [3-hydroxyanthranilic acid],inflammatory cytokine production by auto-reactive T cells,auto-reactive T cells,inhibit inflammatory cytokine production
same,paralysis in experimental autoimmune encephalomyelitis,[4],reverse paralysis
"COc1ccc(C=CC(=O)Nc2ccccc2C(=O)O)cc1OC [3,4-DAA, N-(3,4,-Dimethoxycinnamoyl)anthranilic acid]",inflammatory cytokine production by auto-reactive T cells,auto-reactive T cells,inhibit inflammatory cytokine production
same,paralysis in experimental autoimmune encephalomyelitis,[4],reverse paralysis
ODN 2216: Phosphorothioate-modified type-A CpG ODN gGGGACGATCGTCgggggG (SEQ ID NO:2) (DNA dG*dGdGdGdAdCdGdAdTdCdGdTdCdG*dG*dG*dG*dG*dG),frequency of PDC-induced CD4+CD25+Foxp3+ Tregs,"[1]; day 7 of cultures, CpG ODN 1 μg/ml, mean±SD, 5.7±3.1% without CpG ODN",21.6±5.2%
same,"cell surface expression of CD80, CD86, HLA-DR on PDCs",PDCs,upregulate cell surface expression
same,IDO expression of PDCs during culture,IDO protein in PDCs,sustained their IDO expression
non-CpG: sequence matched non-CpG ODN TCCATGAGCTTCCTGAGCTT (SEQ ID NO:5) (DNA dT*dC*dC*dA*dT*dG*dA*dG*dC*dT*dT*dC*dC*dT*dG*dA*dG*dC*dT*dT),suppressor functions of purified Tregs from IDO-KO mice,BM3 T cells [5]; IDO-KO mice,no significant increase in suppressor functions
same,suppression of BM3 T cell proliferation by purified Tregs from treated mice,"BM3 T cells [5]; mice treated 24 hours, 50 μg/mouse i/v, IDO-WT, 72 hour thymidine incorporation",did not suppress BM3 proliferation
same,spleen tissue pathology after co-transfer of Tregs from treated donor mice,BM3 T cells [6],did not prevent extensive tissue pathology
same,clonal expansion of BM3 T cells in vivo after co-transfer of Tregs from treated donor mice,BM3 T cells [6]; donors treated 24 hours with 50 μg,did not inhibit
same,number of CHOP+ Tregs over basal levels,splenic Tregs,only slightly increased
N[C@@H](Cc1c[nH]c2ccccc12)C(=O)O [tryptophan],"IDO-induced bystander suppression, effect of added agent","OT-I and A1 T cells; not in transwells, thymidine incorporation/CFSE, tryptophan 10× (250 uM)",abrogated suppression
